Data as given in paper PMC9644403, “L-type Amino Acid Transporter 1 Utilizing Ferulic Acid Derivatives Show Increased Drug Delivery in the Mouse Pancreas Along with Decreased Lipid Peroxidation and Prostaglandin Production” (Molecular Pharmaceutics, 2022).

Columns and labels:
[1] = system: prostaglandin E2 (PGE2) production; experiment: Inhibition of prostaglandin E2 production in tissues of LPS-induced mice; type: in vivo, mouse; conditions: LPS 250 μg/kg i.p., mean ± SD; for PGE2 in liver, preventative treatment / PGE2 in pancreas, preventative treatment: compound 25 μmol/kg i.p. 3 days and 120 min before sacrifice; for PGE2 in liver, curative treatment / PGE2 in pancreas, curative treatment: compound 25 μmol/kg i.p. last 2 days
Method: (§1) According to the results from previous in vitro([18]) efficacy and safety studies and in vivo pharmacokinetics, the efficacy of the FA and the more LAT1-specific derivative, D1 against oxidative stress and lipid peroxidation was evaluated by determining malondialdehyde (MDA) formation in mouse tissues. To induce oxidative stress, mice were administered 250 μg/kg of lipopolysaccharide (LPS) i.p. once per day for 3 consecutive days. On the 4th day, mice were anesthetized using a mixture of ketamine (140 mg/kg) and xylazine (8 mg/kg) and sacrificed by decapitation. Animals were divided into one of four treatment groups (n = 4 per group); (1) LPS only, (2) LPS with the FA or D1 (25 μmol/kg; i.p.) for 3 days and 120 min before the sacrifice on the 4th day (preventative efficacy), (3) LPS with the FA or D1 (25 μmol/kg; i.p.) only for the last 2 days (curative efficacy), or (4) control mice treated with 0.9% NaCl solution i.p. once per day for 3 days. After decapitation, the kidney, liver, and pancreas were rapidly collected, snap-frozen on dry ice, and stored at −80 °C until analyzed.
The ability of FA and D1 to inhibit prostaglandin E2 (PGE2) production in the mouse kidney, liver, and pancreas was evaluated after the exposure of mice to LPS. The tissue homogenate supernatants (n = 4), prepared as described above in MDA sample preparation (Chapter 2.7), were further diluted 1:5 with 80% MeOH (v/v) solution containing the deuterated internal standard, PGE2-d4 (Cayman Chemical Company, Ann Arbor, MI, USA). To improve the extraction of prostaglandins and precipitation of proteins, the diluted samples were incubated overnight in a freezer (−80 °C). Subsequently, samples were centrifuged at 16 000 × g for 20 min at 4 °C and the supernatants were collected for the LC–MS/MS analysis.
The LC–MS/MS analysis was carried out with a previously described method[30] using an Agilent 1290 Infinity LC System (Agilent Technologies, Waldbronn, Germany) and an Agilent 6495 triple quadrupole mass spectrometer with a heated electrospray ionization source (Agilent Technologies, Palo Alto, CA, USA). Data were collected using Agilent MassHunter Workstation software (version B.06.00) and processed with the Quantitative Analysis (B.07.00) software. The results were calculated as nmol of PGE2 per mg of tissue.

[2] = system: human erythrocytes; experiment: Erythrocyte morphology, phase-contrast microscopy; type: cell-based; conditions: tested 25–100 μM
Method: To further evaluate the safety of derivatives in human blood, the effects of FA, D1, and D2 on hemolysis were studied using a previously described protocol.[31] Shortly, freshly collected erythrocytes were washed three times with 1 mL of 0.9% saline (Sigma-Aldrich, Germany). Subsequently, 2% RBC suspension was prepared by diluting 1 mL of erythrocytes in 50 mL of 0.9% saline. FA, D1, and D2 (1–100 μM) were incubated with the RBC suspension at 37 °C for 1 h. Additionally, negative controls containing 0.9% NaCl and positive controls with Triton X-100 (Polish Chemical Reagents, Poland) were studied. After incubation, the samples were centrifuged at 3 000 rpm for 10 min, and the absorbance values were measured from the collected supernatants at the wavelength of 550 nm. Samples with Triton X (positive control) represented 100% hemolysis. Results of the studies are presented as a percentage of released hemoglobin. The counted CV was 8.1% (n = 5). Additionally, the influence of FA and its derivatives (25–100 μM) on RBC morphology was studied using a phase contrast Opta-Tech inverted microscope. The morphology was analyzed using a dedicated OptaView 7 software (Opta-Tech, Warsaw, Poland).

[3] = system: human plasma; experiment: Coagulation parameters (PT, INR, APTT, TT) in human plasma
Method: To assess the safety of the LAT1 derivatives in the human blood circulation system, the basic coagulation parameters, prothrombin time (PT), activated partial thromboplastin time (APTT), thrombin time (TT), and international normalized ratio (INR) were determined from human plasma in the presence of FA, D1, and D2. The parameters were studied using a coagulometer (CoagChrom-3003 Bio-Ksel, Grudziądz, Poland), with the previously described methods.[25],[31] The following reagents were used in the basic coagulation studies: Bio-Ksel System APTT reagent and calcium chloride, Bio-Ksel PT plus reagent (thromboplastin and solvent), and thrombin (3.0 UNIH/mL), (Bio-Ksel, Grudziądz, Poland). The experiments were performed using citrated human plasma. Control samples consisting of drug solvents [distilled water and methanol mixture (1:2 v/v)] were conducted. The methods were validated using normal plasma (Bio-Ksel, Grudziądz, Poland). Coefficients of variability (CV) were counted (n = 5): CV(PT) = 5.34%, CV(APTT) = 2.61%, CV(TT) = 1.82%. Following reference values for each test were applied: PT: 9.7–14.6 s; APTT: 26.7–40.0 s; and TT: 14.0–18.0 s for 3.0 UNIH/mL of thrombin.

[4] = previous in vitro bioconversion studies; cited from earlier work
[5] = system: malondialdehyde (MDA) formation; experiment: Inhibition of lipid peroxidation: MDA formation in tissues of LPS-induced mice; type: in vivo, mouse; conditions: LPS 250 μg/kg i.p. 3 days, mean ± SD; for MDA formation in pancreas, preventative treatment: compound 25 μmol/kg i.p. for 3 days and 120 min before sacrifice; for MDA formation in pancreas, curative treatment: compound 25 μmol/kg i.p. only for the last 2 days
Method: as §1
Pieces of snap-frozen tissues were homogenized 1:10 (w/v) in 50 mM TBS (pH 7.4) containing 0.01% butylated hydroxytoluene by sonicating samples in pulses for 5 s with a SoniPrep 150 Plus disintegrator (MSE Ltd., London, UK). The homogenates were then centrifuged at 10 000 × g for 20 min at 4 °C, and the supernatants were collected for the assays.
MDA was quantified by the derivatization reaction with thiobarbituric acid (TBA) (Sigma, St. Louis, MO, USA), with a previously described protocol.[30] The analysis was carried out with an Agilent 1290 Infinity II LC System (Agilent Technologies, Santa Clara, CA, USA) combined with an Agilent 1290 Infinity II Diode Array Detector. The results were calculated as μmol of formed MDA-TBA2 per mg of tissue.

[6] = system: LAT1; parameters: method as in PMID 31814871, PMID 35011270; conditions: previous uptake mechanism studies; cited from earlier work

**Q.** With `COc1cc(C=CC(=O)NCc2cccc(CC(N)C(=O)O)c2)ccc1O` (stereo not shown) [derivative 1] as the compound, how does the “PGE2 in liver, preventative treatment” value [1] read?
**A.** The value was 15.95 ± 9.61 nmol/mg.

**Q.** And the “PGE2 in pancreas, preventative treatment” value [1]?
**A.** The value was 24.51 ± 15.99 nmol/mg.

**Q.** What about the “PGE2 in liver, curative treatment” value [1] of the same compound?
**A.** The value was 48.55 ± 14.50 nmol/mg.

**Q.** And the “PGE2 in pancreas, curative treatment” value [1]?
**A.** Its value is 23.51 ± 8.81 nmol/mg.

**Q.** What about the “concentration at which anisocytosis with formation of macrocytes was observed” value [2] of the same compound?
**A.** The value was 50 to 100 µM.

**Q.** What about the “concentration at which few stomatocytes were detected” value [2] of the same compound?
**A.** Its value is 100 µM.

**Q.** And the “effect on APTT” value ([3]; 100 μM)?
**A.** The value was “prolonged the APTT”.

**Q.** What about the “release of FA in the mouse liver” value [4] of the same compound?
**A.** The value was “neither D1 nor D2 released FA”.

**Q.** And the “MDA formation in pancreas, preventative treatment” value [5]?
**A.** Its value is 0.46 ± 0.47 µmol/mg.

**Q.** What about the “MDA formation in pancreas, curative treatment” value [5] of the same compound?
**A.** Its value is 0.44 ± 0.39 µmol/mg.

**Q.** With `COc1cc(/C=C/C(=O)Nc2cccc(C[C@H](N)C(=O)O)c2)ccc1O` [derivative 2] as the compound, how does the “affinity toward LAT1 compared to the secondary transport mechanism” value [6] read?
**A.** The value was “over 20 times”.

**Q.** And the “overall uptake speed compared to D1” value [6]?
**A.** Its value is 1.5 times.

**Q.** And the “concentration at which formation of echinocytes was observed” value [2]?
**A.** The value was 50 to 100 µM.

**Q.** What about the “release of FA in the mouse liver” value [4] of the same compound?
**A.** The value was “neither D1 nor D2 released FA”.

**Q.** With `COc1cc(C=CC(=O)O)ccc1O` [ferulic acid, 4-hydroxy-3-methoxycinnamic acid] as the compound, how does the “PGE2 in liver, preventative treatment” value [1] read?
**A.** Its value is 25.41 ± 6.35 nmol/mg.

**Q.** And the “PGE2 in pancreas, preventative treatment” value [1]?
**A.** Its value is 57.56 ± 51.63 nmol/mg.

**Q.** What about the “PGE2 in liver, curative treatment” value [1] of the same compound?
**A.** Its value is 37.07 ± 10.02 nmol/mg.

**Q.** What about the “PGE2 in pancreas, curative treatment” value [1] of the same compound?
**A.** Its value is 54.68 ± 22.02 nmol/mg.

**Q.** What about the “effect on INR” value [3] of the same compound?
**A.** Its value is “increased INR”.

**Q.** What about the “prothrombin time (PT)” value ([3]; 100 μM, control 13.2 ± 1.3 s) of the same compound?
**A.** Its value is 15.5 ± 0.4 s.

**Q.** What about the “MDA formation in pancreas, preventative treatment” value [5] of the same compound?
**A.** The value was 0.94 ± 0.41 µmol/mg.

**Q.** What about the “MDA formation in pancreas, curative treatment” value [5] of the same compound?
**A.** The value was 1.04 ± 0.29 µmol/mg.
